The values that follow come from patent US10233201B2, “Class of HDAC inhibitors expands the renal progenitor cells population and improves the rate of recovery from acute kidney injury” (University of Pittsburgh—Of the Commonwealth System of …, priority 2012, dated 2019).

Molecules are shown by their SMILES.

Test [1] deals with renal progenitor cells (lhx1a expression). The test can be described thus: In situ hybridization for lhx1a expression in 10-somite embryos (renal progenitor cell expansion). For lhx1a expansion class, 200 nM: key: effective (+); partially effective (+/−); ineffective (−); Analogs that killed all embryos at a given concentration before reaching 10 somites are listed as XX. For lhx1a expansion class, 400 nM: key: effective (+); partially effective (+/−); ineffective (−); Analogs that killed all embryos at a given concentration before reaching 10 somites are listed as XX. For lhx1a expansion class, 800 nM: key: effective (+); partially effective (+/−); ineffective (−); Analogs that killed all embryos at a given concentration before reaching 10 somites are listed as XX. The test is classed as in vivo. The procedure, abridged:
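Zebrafish embryos treated with compound, then colorimetric whole-mount in situ hybridization for lhx1a mRNA at 10-somite stage (hybridization 65 °C). Percent embryos with expanded kidney field counted manually; EC50 read as the 50% point of the plotted curve.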

Test [2] deals with CD1 mice, folic acid-induced injury. The test can be described thus: Folic acid-induced AKI. The test is classed as in vivo, mouse. Conditions: daily IP 50 mg/ml in 30% PEG300 from 24 hrs after folic acid; after 15 days. As to the method: FIG. 41 are photomicrographs showing the results of an AKI model using folic acid-induced injury. Folic acid is administered to CD1 mice (n=6/group) intraperitoneally (IP) at 250 mg/ml in 0.3M NaHCO3. Compound UPHD-00022 was injected daily IP at […] in 30% PEG300 vehicle starting 24 hrs after folic acid treatment. Kidney tissue was stained using Trichrome and Sirus Red stained after 15 days. Blue in trichrome and the red in sirus red indicates fibrotic (scar) tissue.

Test [3] relates to mouse models of unilateral ureteral obstruction (UUO). The test can be described thus: Unilateral ureteral obstruction (UUO). The class given is in vivo. To be noted: IP days 0 to 6, kidneys harvested at day 7. From the text:
The model of unilateral ureteral obstruction generates progressive renal fibrosis. Surgically created UUO can be experimentally manipulated with respect to timing, severity, and duration, while reversal of the obstruction permits the study of recovery.
FIG. 47 represents the results of the testing of compounds UPHD-00022, UPHD-00025 (PTBA), UPHD-00029, UPHD-00036, and UPHD-00186, for their efficacy in mouse models of unilateral ureteral obstruction (UUO) as follows: in the UUO models, one ureter was ligated for 7 days and compounds were delivered via IP for days 0 to 6. At day 7 kidneys were harvested for Sirius red staining. […] Therefore, in the models tested, the only compound proven to be effective in all models and with significant delayed onset of treatment is UPHD-186.

The mark [4] stands for this setting: lhx1a in situ hybridization, includes repeats* and recounts.

As for `COC(=O)CCCSc1ccc(OC)cc1` [UPHD-00022, methyl 4-[(4-methoxyphenyl)sulfanyl]butanoate], in test [1] (200 nM from 2 hpf), the “lhx1a expansion class, 200 nM” value is listed as “−”. Further, the “lhx1a expansion class, 400 nM” value in test [1] (400 nM from 2 hpf) is reported as “+/−”. In addition, the “lhx1a expansion class, 800 nM” value in test [1] (800 nM from 2 hpf) is “+”. The responders at 0.4 µM in test [1] (Danio rerio, 400 nM, read-out: embryos with expanded lhx1a expression (% expansion)) was found to be 29%. Moreover, the responders at 0.8 µM in test [1] (Danio rerio, 800 nM, read-out: embryos with expanded lhx1a expression (% expansion)) was found to be 57%. For the same compound, in test [1] (setting [4]), the “Expansion of Cells, 800 nM” value amounted to 57%; the “Expansion of Cells, 1.5 μM” value is 91%; the “Expansion of Cells, 3 μM” value is given as 100%. Besides, the “renal fibrosis (Trichrome and Sirus Red)” value in test [2] was “a reduction in fibrosis is seen”. In addition, in test [3], the “fibrosis (Sirius red) and expression of fibrosis markers in UUO kidney” value was “reduce both fibrosis and expression of fibrosis markers”.
